Results on eleven compounds are retold here after patent US10053485B2, “Cytotoxic agents that preferentially target leukemia inhibitory factor (LIF) for the treatment of malignancies and as new contraceptive agents” (Evestra, Inc., priority 2015, dated 2018).

The subject of data set [1] is MDA-MB-231 (TNBC cells). The experiment in a line: Short term (72 h) cytotoxicity assay. The class given is cell-based. The conditions noted are these: Homo sapiens; MDA-MB-231, 72 h cytotoxicity.
In data set [2] the test system is unmodified MCF-7 human breast cancer cells. The experiment in a line: LIF specificity assay, unmodified cells. The data set is classed as cell-based.
Data set [3] has as its system IGROV-1 (Ovarian cancer cells). The experiment in a line: Short term (72 h) cytotoxicity assay. The class given is cell-based. The conditions noted are these: Homo sapiens; IGROV-1, 72 h cytotoxicity.
Data set [4] deals with U87-MU (Glioma cells). Put plainly: Short term (72 h) cytotoxicity assay. The data set is classed as cell-based.
Data set [5] deals with LIF-overexpressing MCF-7 (MCF-7 LIF) human breast cancer cells. The experiment in a line: LIF specificity assay, LIF-overexpressing cells. The class given is cell-based.
Data set [6] deals with U251 (Glioma). The experiment in a line: Short term (72 h) cytotoxicity assay. The class given is cell-based, human. The conditions noted are these: U251, 72 h cytotoxicity.
For data set [7], the system named is A549 (Lung cancer). Put plainly: Short term (72 h) cytotoxicity assay. The data set is classed as cell-based, human. The conditions noted are these: A549, 72 h cytotoxicity.
The subject of data set [8] is MCF-7 (ER+ Breast Cancer). The experiment in a line: Short term (72 h) cytotoxicity assay. The class given is cell-based. The conditions noted are these: Homo sapiens, MCF7; MCF-7, 72 h cytotoxicity.
Data set [9] has as its system human endometrial stromal cells (HESC). Put plainly: Decidualization assay, actin cytoskeleton by phalloidin staining. The class given is cell-based. The conditions noted are these: FIG. 3. The method, then: Decidualization studies: The above compounds were investigated originally for the treatment of endometriosis. The compounds were tested in a decidualization assay using human endometrial stromal fibroblast (HESC) cells. In preparation for the possibility of embryonic attachment, the stromal cells in the endometrium undergo extensive waves of proliferation, remodeling, and terminal differentiation that transforms the endometrium into an endocrine gland, called decidua. This transformation is called decidualization and it is under the control by ovarian hormones.
The level of apoptosis increases from the proliferative phase through menstrual cycle and peaks at menses. […] However if the cells are subjected to conditions that induce decidualization, stromal cells will begin to differentiate instead of undergoing apoptosis.
Briefly, human stromal endometrial cells were plated in the presence and absence of progesterone and allow undergoing decidualization. The cells treated with test compounds of different concentrations and stained for actin cytocketal morphology using phalloidin staining and monitored under fluorescent microscope.

Data set [10] relates to Ishikawa (Endometrial Cancer). The experiment in a line: Short term (72 h) cytotoxicity assay. The data set is classed as cell-based. The conditions noted are these: Homo sapiens.
For data set [11], the system named is various cancer cells lines. Put plainly: Cytotoxicity assays in various cancer cell lines. The class given is cell-based. The conditions noted are these: in words. As for the experimental part: Briefly, 5×10^3 cells were seeded in 96-well plates and incubated with compounds (0.0001-10 μmol/L) or dimethyl sulfoxide (DMSO; 0.02% v/v) for 24, 48, and 72 hours at 37° C. and cell viability was measured using a Fluoroscan plate reader.

Data set [12] concerns Patient derived tumor (melanoma): p53, LIF, MDM2, pSTAT3, Ki67. The experiment in a line: Immunohistochemistry analysis of patient derived tumor. The conditions noted are these: 10 nM and 1 uM for 5 days, FIG. 10. The class given is cell-based, human. The method, then:
Patient derived tumor (melanoma) was treated with the compounds at 10 nM and 1 uM for 5 days in RPMI medium and harvested on day 6 using established protocol and immunohistochemistry was performed for different antibodies including p53, LIF, MDM2, pSTAT3, Ki67.

In data set [13] the test system is LNCaP (AR+ Prostate). Put plainly: Short term (72 h) cytotoxicity assay. The class given is cell-based.
The subject of data set [14] is PC3 (AR− Prostate Cancer). Put plainly: Short term (72 h) cytotoxicity assay. The class given is cell-based. The conditions noted are these: Homo sapiens, PC3, 72 h cytotoxicity.
Data set [15] has as its system human umbilical vein endothelial cells (HUVEC). Put plainly: Matrigel in vitro HUVECs tube formation assay (angiogenesis). The conditions noted are these: 1 μM concentration, all measured time points. The data set is classed as cell-based. The method, then: Matrigel in vitro HUVECs tube formation assay: The tube formation assay was performed using 12-well plate coated with 100 μL Matrigel basement membrane matrix (BD Bioscience) per well and polymerized at 37° C. for 30 min. Human umbilical vascular endothelial cells (HUVECs) suspended in M199 medium containing 2% FBS were plated on the Matrigel at a density of 2×10^5 cells/well. […] After 8 h, the Matrigel-induced morphological changes were photographed and the extent of capillary tube formation was evaluated by measuring the total tube length per field.

For data set [16], the system named is T47D breast cancer cells. The experiment in a line: Soft agar colony formation assay. The data set is classed as cell-based, human. As for the experimental part: Colonies of cancer cells formed in soft agar in the presence and absence of the testing compounds is a standard assay to interpret in-vitro tumorigenic potential in the basal layer. Agar was prepared by mixing 1% DNA grade agar melted and cooled to 40° C. with an equal volume of (2×) Dulbecco's Modified Eagle's Medium (DMEM) to obtain 0.5% agar that was dispersed in a 6-well plate and allowed to solidify. A total of 0.6% agar was prepared in RPMI medium and mixed together with T47D cells (0.5×10^6 cells/mL) and immediately plated on the basal layer in the presence or absence of testing compounds. The cultures were incubated at 37° C. in a CO2 incubator for 2 weeks, and colonies were stained with 0.005% crystal violet and observed under a light microscope.

Data set [17] relates to MDM2 / P53 in MCF-7 cells. Put plainly: P53 / MDM2 levels in MCF-7 cells (FIG. 5). The class given is cell-based, human.
Data set [18] relates to T47D (ER+ PR+ Breast Cancer). The experiment in a line: Short term (72 h) cytotoxicity assay. The class given is cell-based. The conditions noted are these: Homo sapiens.
[19] abbreviates: Homo sapiens, MCF7, cytotoxicity.
Setting [20] is: Homo sapiens, MCF7, cytotoxicity, LIF-overexpressing MCF-7, read-out: MCF-7 LIF IC50.

Read-outs that look alike come from different tables or passages of the source. Bounds are passed on as bounds.

On to `C#CC(F)(F)[C@]1(O)CCC2C3CCC4=CC(=O)CCC4=C3C(c3ccc(S(=O)(=O)C4CC4)cc3)C[C@@]21C` (stereo partly drawn) [EC361, 17α-(1,1-difluoro-2-propyn-1-yl)-17β-hydroxy-11β-[4-p-(cyclopropylsulfonyl)phenyl]estra-4,9-dien-3-one], for which the IC50 was 750 nM in data set [1]; above 10000 nM in data set [2] (setting [19]); 350 nM in data set [3]; 230 nM in [4] (Glioma cell); 500 nM in [5] (setting [20]).

Take `C#CC(F)(F)[C@]1(O)CC[C@H]2[C@@H]3CCC4=CC(=O)CCC4=C3[C@@H](c3ccc(-c4c(C)cc(C)cc4C)cc3)C[C@@]21C` [EC359, 17α-(1,1-difluoro-2-propyn-1-yl)-17β-hydroxy-11β-[4-p-(2,4,6-trimethylphenyl)phenyl]estra-4,9-dien-3-one]: the IC50 in data set [1] turned out to be 30 nM; in data set [2] (setting [19]), 240 nM; in data set [3], 25 nM; in [4] (Glioma cell), 10 nM; in [5] (Homo sapiens, MCF7, read-out: MCF-7 LIF IC50) it was 30 nM.

On to `C#CC(F)(F)[C@]1(O)CCC2C3CCC4=CC(=O)CCC4=C3C(c3ccc(C4CCCCC4)cc3)C[C@@]21C` (stereo partly drawn) [EC360, 17α-(1,1-difluoro-2-propyn-1-yl)-17β-hydroxy-11β-[4-p-(cyclohexyl)phenyl]estra-4,9-dien-3-one], for which the IC50 in [1] turned out to be 40 nM; in data set [2] (setting [19]) it was 500 nM; in [3] it was 22 nM; in data set [4] (Glioma cell), 73 nM; in [5] (setting [20]) it was 250 nM.

For the compound `C#CC(F)(F)[C@]1(O)CCC2C3CCC4=CC(=O)CCC4=C3C(c3ccc(OC)cc3)C[C@@]21C` (stereo partly drawn) [EC356, 17α-(1,1-difluoro-2-propyn-1-yl)-17β-hydroxy-11β-[4-p-(methoxy)phenyl]estra-4,9-dien-3-one], the IC50 was found to be 45 nM in data set [6] (Homo sapiens, U-251); 40 nM in [7] (Homo sapiens); 500 nM in [2] (setting [19]); 45 nM in [4] (Glioma cell); 250 nM in [5] (setting [20]).

With `C#CC(F)(F)[C@]1(O)CCC2C3CCC4=CC(=O)CCC4=C3C(c3ccc(SC)cc3)C[C@@]21C` (stereo partly drawn) [EC363, 17α-(1,1-difluoro-2-propyn-1-yl)-17β-hydroxy-11β-[4-p-(methylthio)phenyl]estra-4,9-dien-3-one], the IC50 in data set [3] and in data set [4] (Glioma cell) was 30 nM in each case.

For `C#CC(F)(F)[C@]1(O)CCC2C3CCC4=CC(=O)CCC4=C3C(c3ccc(C(C)=O)cc3)C[C@@]21C` (stereo partly drawn) [EC332, 17α-(1,1-difluoro-2-propyn-1-yl)-17β-hydroxy-11β-[4-p-(acetyl)phenyl]estra-4,9-dien-3-one], the IC50 in data set [6] (Homo sapiens, U-251) worked out at 40 nM; in [8], 45 nM; in [7] (Homo sapiens) it was 75 nM; in data set [1], 110 nM; in data set [10] it was 10 nM; in data set [4] (Glioma cell), 90 nM. Further, the results for the IC50 in [13], in [14] and in [18] were 96 nM, 300 nM and 200 nM, respectively. For the same compound, the “actin / alpha-smooth muscle mediated cytoskeletal disruption of fibroblast” value in data set [9] is “cytoskeletal disruption”. Moreover, the “IC50's in cytotoxicity assays” value in [11] is reported as “low nanomolar”. The “apoptosis, p53, MDM2, LIF mediated STAT3 phosphorylation (immunohistochemistry)” value in data set [12] was “induce apoptosis and restore p53 by inhibiting MDM2 and LIF mediated STAT3 phosphorylation”. Besides, the tube formation result in data set [15] was “complete abrogation”. Besides, in data set [16] (100 nM concentration, in words), the “inhibition in the number of colonies formed” value is listed as “complete inhibition”. Also, in data set [16] (Homo sapiens, T47D, 5 nM concentration, read-out: inhibition in the number of colonies formed), the inhibition at 0.005 µM was determined as 50%. Moreover, the “P53 levels / MDM2” value in data set [17] is reported as “restore P53 levels by inhibiting MDM2”.

Regarding `C#CC(F)(F)[C@]1(O)CCC2C3CCC4=CC(=O)CCC4=C3C(c3ccc(C(=C)C)cc3)C[C@@]21C` (stereo partly drawn) [EC358, 17α-(1,1-difluoro-2-propyn-1-yl)-17β-hydroxy-11β-[4-p-(1-methylethenyl)phenyl]estra-4,9-dien-3-one], the IC50 in [1] was determined as 40 nM; in [2] (setting [19]), 100 nM; in data set [3] it was 35 nM; in data set [4] (Glioma cell), 25 nM; in [5] (setting [20]), 50 nM.

As to `C#CC(F)(F)[C@]1(O)CCC2C3CCC4=CC(=O)CCC4=C3C(c3ccc(CCCCCCC)cc3)C[C@@]21C` (stereo partly drawn) [EC362, 17α-(1,1-difluoro-2-propyn-1-yl)-17β-hydroxy-11β-[4-p-(n-heptyl)phenyl]estra-4,9-dien-3-one], the IC50 in data set [2] (setting [19]) came to 50 nM; in data set [3], 7.5 nM; in data set [5] (setting [20]), 25 nM; in data set [18], 25 nM.

Compound `C#CC(F)(F)[C@]1(O)CCC2C3CCC4=CC(=O)CCC4=C3C(c3ccc(C(C)(C)C)cc3)C[C@@]21C` (stereo partly drawn) [EC357, 17α-(1,1-difluoro-2-propyn-1-yl)-17β-hydroxy-11β-[4-p-(t-butyl)phenyl]estra-4,9-dien-3-one] returned a melting point of 127 to 129 °C. Also, the IC50 in [6] (Homo sapiens, U-251) is 30 nM. Further, half-maximal inhibition in data set [7] (Homo sapiens) (IC50) required 35 nM. The compound further registered a half-inhibitory concentration (IC50) in [4] (Glioma cell) of 35 nM.

On to `C#CC(F)(F)[C@]1(O)CCC2C3CCC4=CC(=O)CCC4=C3C(c3ccc(N(C)C)cc3)C[C@@]21C` (stereo partly drawn) [EC352, 17α-(1,1-difluoro-2-propyn-1-yl)-17β-hydroxy-11β-[4-p-(dimethylamino)phenyl]estra-4,9-dien-3-one], for which the IC50 in [6] is 40 nM; in data set [7], 45 nM; in data set [2] (cytotoxicity), above 10000 nM; in data set [4] it was 50 nM; in data set [5] (cytotoxicity, LIF-overexpressing MCF-7, read-out: MCF-7 LIF IC50) it was above 10000 nM. In addition, the “Fold Change” value in data set [5] (MCF-7 vs. MCF-7 LIF cytotoxicity (specificity towards LIF)) was 0.

The compound `C#CC(F)(F)[C@]1(O)CCC2C3CCC4=CC(=O)CCC4=C3C(c3ccc(-n4ccnc4)cc3)C[C@@]21C` (some centres unmarked) [EC351] came in with a melting point of 175 to 178 °C. The half-inhibitory concentration (IC50) in [6] (Homo sapiens, U-251) came out at 500 nM.

Usually IC50 stands for the concentration at which inhibition is half-maximal. In general, inhibition refers to the share of the control response that was lost under treatment. The melting point is the temperature of the solid-liquid transition.
